Target: T1, HDAC6 enzyme (Homo sapiens, UniProt Q9UBN7)
T1 construct: prepared by transducing full length HDAC6 gene into Sf-9 insect cells; GST; purchased SignalChem; host or cells: Sf-9 insect cells
T1 sequence (Q9UBN7 1-1215): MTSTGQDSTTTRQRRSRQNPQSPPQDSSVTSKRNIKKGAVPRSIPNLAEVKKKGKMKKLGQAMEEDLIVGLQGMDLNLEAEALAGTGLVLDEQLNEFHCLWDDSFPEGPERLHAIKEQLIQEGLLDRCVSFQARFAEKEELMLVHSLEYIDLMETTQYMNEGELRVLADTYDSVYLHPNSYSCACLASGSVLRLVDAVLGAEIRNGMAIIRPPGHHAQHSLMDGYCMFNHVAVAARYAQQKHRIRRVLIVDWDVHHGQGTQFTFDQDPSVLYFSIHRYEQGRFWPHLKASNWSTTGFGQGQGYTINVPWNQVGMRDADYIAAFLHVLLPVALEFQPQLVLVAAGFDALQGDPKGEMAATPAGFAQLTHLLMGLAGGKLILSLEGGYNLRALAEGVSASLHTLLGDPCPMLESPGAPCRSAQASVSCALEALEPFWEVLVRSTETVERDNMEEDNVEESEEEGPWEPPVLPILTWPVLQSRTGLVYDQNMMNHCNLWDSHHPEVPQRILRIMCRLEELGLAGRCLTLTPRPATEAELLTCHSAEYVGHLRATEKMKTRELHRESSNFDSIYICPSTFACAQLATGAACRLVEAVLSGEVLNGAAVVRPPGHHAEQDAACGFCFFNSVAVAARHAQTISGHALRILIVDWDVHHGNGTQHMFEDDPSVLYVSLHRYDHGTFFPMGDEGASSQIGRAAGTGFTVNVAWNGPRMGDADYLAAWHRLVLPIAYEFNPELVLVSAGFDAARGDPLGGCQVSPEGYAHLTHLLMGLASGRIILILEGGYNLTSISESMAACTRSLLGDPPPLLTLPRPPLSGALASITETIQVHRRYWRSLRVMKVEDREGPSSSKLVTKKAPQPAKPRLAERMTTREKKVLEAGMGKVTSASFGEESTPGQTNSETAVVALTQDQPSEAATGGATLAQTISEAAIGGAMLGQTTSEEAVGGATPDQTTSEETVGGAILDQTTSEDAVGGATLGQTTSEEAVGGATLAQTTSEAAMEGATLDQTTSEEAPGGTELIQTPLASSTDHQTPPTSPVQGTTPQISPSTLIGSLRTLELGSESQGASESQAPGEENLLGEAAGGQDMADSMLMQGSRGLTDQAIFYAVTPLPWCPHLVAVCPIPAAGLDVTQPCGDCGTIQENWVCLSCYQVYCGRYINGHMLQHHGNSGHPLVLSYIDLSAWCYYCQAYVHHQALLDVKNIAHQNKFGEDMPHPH
Test: HDAC6 enzyme inhibitory assay (HDAC-Glo I/II Assay kit, luminescence)
Format: biochemical
Settings: 10 μM test compound; wells without enzyme = 100% inhibition; read-out: HDAC6 inhibitory rate (%) (10 μM)
In short: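 Full-length human HDAC6, GST-purified from Sf-9 cells, was preincubated with compound for 60 min at room temperature in Tris-HCl pH 7.5 buffer with glutathione and Tween-20. Substrate-developer was then added, and luminescence was read after 20 min at room temperature. Inhibition was expressed relative to no-enzyme wells, taken as 100% inhibition.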

Fc1cc(-c2nnc(C(F)F)o2)cc(-c2nccn2CC2CCC(F)(F)CC2)c1 [Example 28a, 2-(3-{1-[(4,4-difluorocyclohexyl)methyl]-1H-imidazol-2-yl)-5-fluorophenyl)-5-(difluoromethyl)-1,3,4-oxadiazole]
inhibition at 10 µM: 99%

Fc1cc(-c2nnc(C(F)F)o2)cc(-c2nccn2Cc2cccc(C(F)(F)F)c2)c1 [Example 67a]
inhibition at 10 µM: 99%

Fc1cccc(Cc2cncnc2-c2cc(-c3nnc(C(F)F)o3)ccn2)c1 [Example 90a, 4-{4-[5-(difluoromethyl)-1,3,4-oxadiazol-2-yl]pyridin-2-yl}-5-[(3-fluorophenyl)methyl]pyrimidine]
inhibition at 10 µM: 98%

Fc1cc(-c2nnc(C(F)F)o2)cc(-c2ncccc2OCc2ccccc2)c1 [Example 5a, 3-(benzyloxy)-2-{3-[5-(difluoromethyl)-1,3,4-oxadiazol-2-yl]-5-fluorophenyl}pyridine]
inhibition at 10 µM: 98%

CN1C(=O)c2cc(-c3nnc(C(F)F)o3)ccc2CN1c1ccc(F)cc1 [Example 10b, 7-[5-(difluoromethyl)-1,3,4-oxadiazol-2-yl]-3-(4-fluorophenyl)-2-methyl-3,4-dihydrophthalazin-1(2H)-one]
inhibition at 10 µM: 100%

O=C(CC(F)(F)F)N(Cc1ccc(F)cc1)N1Cc2ccc(-c3nnc(C(F)F)o3)cc2C1=O [Example 14c, N-{6-[5-(difluoromethyl)-1,3,4-oxadiazol-2-yl]-1-oxo-1,3-dihydro-2H-isoindol-2-yl}-3,3,3-trifluoro-N-[(4-fluorophenyl)methyl]propanamide]
inhibition at 10 µM: 100%

CC(C)(C)OC(=O)NN1Cc2ccc(-c3nnc(C(F)F)o3)cc2C1=O [Example 3c, tert-butyl {6-[5-(difluoromethyl)-1,3,4-oxadiazol-2-yl]-1-oxo-1,3-dihydro-2H-isoindol-2-yl}carbamate]
inhibition at 10 µM: 99%

O=C1c2cc(-c3nnc(C(F)F)o3)ccc2CN1N(Cc1cnn(C2CC2)c1)Cc1cnn(C2CC2)c1 [Example 10c, 2-{bis[(1-cyclopropyl-1H-pyrazol-4-yl)methyl]amino}-6-[5-(difluoromethyl)-1,3,4-oxadiazol-2-yl]-2,3-dihydro-1H-isoindol-1-one]
inhibition at 10 µM: 97%

CC(=O)Nc1ccc(CN(C)N2Cc3ccc(-c4nnc(C(F)F)o4)cc3C2=O)cc1 [Example 52c, N-(4-{[{6-[5-(difluoromethyl)-1,3,4-oxadiazol-2-yl]-1-oxo-1,3-dihydro-2H-isoindol-2-yl}(methyl)amino]methyl}phenyl) acetamide]
inhibition at 10 µM: 100%

Fc1cccc(Cn2ccnc2-c2cc(-c3nnc(C(F)F)o3)ccn2)c1 [Example 71a, 4-[5-(difluoromethyl)-1,3,4-oxadiazol-2-yl]-2-{1-[(3-fluorophenyl)methyl]-1H-imidazol-2-yl}pyridine]
inhibition at 10 µM: 100%

O=C1c2cc(-c3nnc(C(F)F)o3)ccc2CN1Nc1ccc(F)cn1 [Example 39c, 6-[5-(difluoromethyl)-1,3,4-oxadiazol-2-yl]-2-[(5-fluoropyridin-2-yl)amino]-2,3-dihydro-1H-isoindol-1-one]
inhibition at 10 µM: 88%

O=C1c2cc(-c3nnc(C(F)F)o3)ccc2CN1Nc1ccc(F)c(Cl)c1 [Example 37c, 2-(3-chloro-4-fluoroanilino)-6-[5-(difluoromethyl)-1,3,4-oxadiazol-2-yl]-2,3-dihydro-1H-isoindol-1-one]
inhibition at 10 µM: 99%

O=C(OC1CCOC1)N(Cc1ccc(F)cc1)N1Cc2ccc(-c3nnc(C(F)F)o3)cc2C1=O (centres unmarked) [Example 26c, oxolan-3-yl {6-[5-(difluoromethyl)-1,3,4-oxadiazol-2-yl]-1-oxo-1,3-dihydro-2H-isoindol-2-yl}[(4-fluorophenyl)methyl]carbamate]
inhibition at 10 µM: 99%

O=C1c2cc(-c3nnc(C(F)F)o3)ccc2CN1NCC1CCOCC1 [Example 17c, 6-[5-(difluoromethyl)-1,3,4-oxadiazol-2-yl]-2-{[(oxan-4-yl)methyl]amino}-2,3-dihydro-1H-isoindol-1-one]
inhibition at 10 µM: 98%

CN(Cc1ccc(F)c(F)c1)N1Cc2ccc(-c3nnc(C(F)F)o3)cc2C1=O [Example 40c, 6-[5-(difluoromethyl)-1,3,4-oxadiazol-2-yl]-2-{[(3,4-difluorophenyl)methyl](methyl)amino}-2,3-dihydro-1H-isoindol-1-one]
inhibition at 10 µM: 101%

CCS(=O)(=O)N(Cc1ccc(F)cc1)N1Cc2ccc(-c3nnc(C(F)F)o3)cc2C1=O [Example 27c, N-{6-[5-(difluoromethyl)-1,3,4-oxadiazol-2-yl]-1-oxo-1,3-dihydro-2H-isoindol-2-yl}-N-[(4-fluorophenyl)methyl] ethanesulfonamide]
inhibition at 10 µM: 99%

O=C1c2cc(-c3nnc(C(F)F)o3)ccc2CN1NC1CCCCC1 [Example 29c, 2-(cyclohexylamino)-6-[5-(difluoromethyl)-1,3,4-oxadiazol-2-yl]-2,3-dihydro-1H-isoindol-1-one]
inhibition at 10 µM: 95%

CC(c1cccc(F)c1)n1ccnc1-c1cc(-c2nnc(C(F)F)o2)ccn1 (centres unmarked) [Example 92a, 4-[5-(difluoromethyl)-1,3,4-oxadiazol-2-yl]-2-{1-[1-(3-fluorophenyl)ethyl]-1H-imidazol-2-yl}pyridine]
inhibition at 10 µM: 100%

O=C1c2cc(-c3nnc(C(F)F)o3)ccc2CN1NCCc1ccc(F)cc1F [Example 19c, 6-[5-(difluoromethyl)-1,3,4-oxadiazol-2-yl]-2-{[2-(2,4-difluorophenyl)ethyl]amino}-2,3-dihydro-1H-isoindol-1-one]
inhibition at 10 µM: 98%

CC(C)(C)OC(=O)N1CCCC1COc1cccnc1-c1cc(F)cc(-c2nnc(C(F)F)o2)c1 (centres unmarked) [Example 17a]
inhibition at 10 µM: 96%

COCCOc1cccnc1-c1cc(F)cc(-c2nnc(C(F)F)o2)c1 [Example 13a, 2-{3-[5-(difluoromethyl)-1,3,4-oxadiazol-2-yl]-5-fluorophenyl}-3-(2-methoxyethoxy)pyridine]
inhibition at 10 µM: 92%

O=C1c2cc(-c3nnc(C(F)F)o3)ccc2CN1N(Cc1ccc(F)cc1)CC1CCOCC1 [Example 2c, 6-[5-(difluoromethyl)-1,3,4-oxadiazol-2-yl]-2-{[(4-fluorophenyl)methyl][(oxan-4-yl)methyl]amino}-2,3-dihydro-1H-isoindol-1-one]
inhibition at 10 µM: 99%

COCCOc1ccc(CN(C)N2Cc3ccc(-c4nnc(C(F)F)o4)cc3C2=O)cc1 [Example 55c, 6-[5-(difluoromethyl)-1,3,4-oxadiazol-2-yl]-2-[{[4-(2-methoxyethoxy)phenyl]methyl} (methyl)amino]-2,3-dihydro-1H-isoindol-1-one]
inhibition at 10 µM: 101%

CC(=O)N1CCC(Cn2ccnc2-c2cc(F)cc(-c3nnc(C(F)F)o3)c2)CC1 [Example 31a, 1-{4-[(2-{3-[5-(difluoromethyl)-1,3,4-oxadiazol-2-yl]-5-fluorophenyl}-1H-imidazol-1-yl)methy]piperidin-1-yl}ethan-1-one]
inhibition at 10 µM: 98%

N#Cc1ccnc(Cn2ccnc2-c2cc(-c3nnc(C(F)F)o3)ccn2)c1 [Example 95a, 2-[(2-{4-[5-(difluoromethyl)-1,3,4-oxadiazol-2-yl]pyridin-2-yl}-1H-imidazol-1-yl)methyl]pyridine-4-carbonitrile]
inhibition at 10 µM: 100%

COc1ccc(Cn2ccnc2-c2cc(-c3nnc(C(F)F)o3)ccn2)cc1 [Example 80a, 4-[5-(difluoromethyl)-1,3,4-oxadiazol-2-yl]-2-{1-[(4-methoxyphenyl)methyl]-1H-imidazol-2-yl}pyridine]
inhibition at 10 µM: 104%

From patent US12084436B2, “Heterocyclic compound” (Takeda Pharmaceutical Company Limited, priority 2019, dated 2024)
